Source: ChEMBL document CHEMBL5055665, “Discovery of the Triazolo[1,5-a]Pyrimidine-Based Derivative WS-898 as a Highly Efficacious and Orally Bioavailable ABCB1 Inhibitor Capable of Overcoming Multidrug Resistance” (J Med Chem, 2021)

Tests used:
SW-620 [1] = assay: Reversal of resistance to paclitaxel-induced cytotoxicity in human SW-620/AD300 cells assessed as reversal fold at 1 uM preincubated for 4 hrs followed by paclitaxel addition and measured after 72 hrs by MTT assay relative to paclitaxel; type: functional; conditions: time 76 hrs
SW-620 [2] = assay: Reversal of resistance to paclitaxel-induced cytotoxicity in human SW-620/AD300 cells assessed as reduction in paclitaxel IC50 at 1 uM preincubated for 4 hrs followed by paclitaxel addition and measured after 72 hrs by MTT assay (reference value: 4.23 +/- 0.50 uM); type: functional, cell-based
SW-620 [3] = assay: Reversal of resistance to paclitaxel-induced cytotoxicity in human SW-620/AD300 cells assessed as reduction in paclitaxel IC50 at 2 uM preincubated for 4 hrs followed by paclitaxel addition and measured after 72 hrs by MTT assay (reference value: 4.23 +/- 0.50 uM); type: functional, cell-based
SW-620 [4] = assay: Reversal of resistance to paclitaxel-induced cytotoxicity in human SW-620/AD300 cells assessed as reversal fold at 2 uM preincubated for 4 hrs followed by paclitaxel addition and measured after 72 hrs by MTT assay relative to paclitaxel; type: functional; conditions: time 76 hrs
SW-620 [5] = assay: Reversal of resistance to paclitaxel-induced cytotoxicity in human SW-620/AD300 cells assessed as reversal fold at 6 uM preincubated for 4 hrs followed by paclitaxel addition and measured after 72 hrs by MTT assay relative to paclitaxel; type: functional; conditions: time 76 hrs
SW-620 [6] = assay: Reversal of resistance to paclitaxel-induced cytotoxicity in human SW-620/AD300 cells assessed as reduction in paclitaxel IC50 at 6 uM preincubated for 4 hrs followed by paclitaxel addition and measured after 72 hrs by MTT assay (reference value: 4.23 +/- 0.50 uM); type: functional, cell-based
SW-620 [7] = assay: Reversal of resistance to paclitaxel-induced cytotoxicity in human SW-620/AD300 cells assessed as reduction in paclitaxel IC50 at 10 uM preincubated for 4 hrs followed by paclitaxel addition and measured after 72 hrs by MTT assay (reference value: 4.23 +/- 0.50 uM); type: functional, cell-based
SW-620 [8] = assay: Reversal of resistance to paclitaxel-induced cytotoxicity in human SW-620/AD300 cells assessed as reversal fold at 10 uM preincubated for 4 hrs followed by paclitaxel addition and measured after 72 hrs by MTT assay relative to paclitaxel; type: functional; conditions: time 76 hrs
SW-620 [9] = assay: Reversal of resistance to paclitaxel-induced cytotoxicity in human SW-620/AD300 cells assessed as reversal fold at 5 uM preincubated for 4 hrs followed by paclitaxel addition and measured after 72 hrs by MTT assay relative to paclitaxel; type: functional; conditions: time 76 hrs
SW-620 [10] = assay: Reversal of resistance to paclitaxel-induced cytotoxicity in human SW-620/AD300 cells assessed as reduction in paclitaxel IC50 at 5 uM preincubated for 4 hrs followed by paclitaxel addition and measured after 72 hrs by MTT assay (reference value: 4.23 +/- 0.50 uM); type: functional, cell-based
SW-620 [11] = assay: Reversal of resistance to paclitaxel-induced cytotoxicity in human SW-620/AD300 cells assessed as reversal fold at 8 uM preincubated for 4 hrs followed by paclitaxel addition and measured after 72 hrs by MTT assay relative to paclitaxel; type: functional; conditions: time 76 hrs
SW-620 [12] = assay: Reversal of resistance to paclitaxel-induced cytotoxicity in human SW-620/AD300 cells assessed as reduction in paclitaxel IC50 at 8 uM preincubated for 4 hrs followed by paclitaxel addition and measured after 72 hrs by MTT assay (reference value: 4.23 +/- 0.50 uM); type: functional, cell-based

In the case of Cc1cc(Nc2ccc(C(=O)/C=C/c3ccc4c(c3)OC(F)(F)O4)cc2)n2nc(SCc3nc4ccccc4[nH]3)nc2n1, the “fold change (FC)” value (SW-620 [1]) is reported as 17.63 and the IC50 (SW-620 [2]) is reported as 240 nM.

In the case of Cc1cc(Nc2ccc(C(=O)/C=C/c3ccc(C(F)(F)F)cc3)cc2)n2nc(SCc3nc4ccccc4[nH]3)nc2n1, the IC50 (SW-620 [3]) is reported as 1850 nM and the “fold change (FC)” value (SW-620 [4]) is reported as 2.29.

Cc1cc(Nc2ccc(C(=O)/C=C/c3ccc4ccccc4c3)cc2)n2nc(SCCc3ccccc3)nc2n1 was tested, and the “fold change (FC)” value (SW-620 [5]) was 6.31 and the IC50 (SW-620 [6]) was 670 nM.

For Cc1cc(Nc2ccc(C(=O)/C=C/c3ccc4ccccc4c3)cc2)n2ncnc2n1, the IC50 (SW-620 [7]) was 730 nM and the “fold change (FC)” value (SW-620 [8]) was 5.79.

For Cc1cc(Nc2ccc(C(=O)/C=C/c3cccc(Cl)c3)cc2)n2nc(SCc3nc4ccccc4[nH]3)nc2n1, the IC50 (SW-620 [3]) was 400 nM and the “fold change (FC)” value (SW-620 [4]) was 10.58.

With Cc1cc(Nc2ccc(C(=O)/C=C/c3ccc4ccccc4c3)cc2)n2nc(SCc3cccc4ccccc34)nc2n1 the IC50 (SW-620 [3]) was 68 nM and the “fold change (FC)” value (SW-620 [4]) was 62.21.

Cc1cc(Nc2ccc(C(=O)/C=C/c3ccc4ccccc4c3)cc2)n2nc(SCc3ccccc3C(F)(F)F)nc2n1 was tested, and the “fold change (FC)” value (SW-620 [9]) was 3.41 and the IC50 (SW-620 [10]) was 1240 nM.

With CCCSc1nc2nc(C)cc(Nc3ccc(C(=O)/C=C/c4ccc5ccccc5c4)cc3)n2n1 the IC50 (SW-620 [7]) was 1070 nM and the “fold change (FC)” value (SW-620 [8]) was 3.95.

In the case of Cc1cc(Nc2ccc(C(=O)/C=C/c3ccc4ccccc4c3)cc2)n2nc(SCc3ccc([N+](=O)[O-])cc3)nc2n1, the “fold change (FC)” value (SW-620 [9]) is reported as 3.74 and the IC50 (SW-620 [10]) is reported as 1130 nM.

COc1ccc(/C=C/C(=O)c2ccc(Nc3cc(C)nc4nc(SCc5nc6ccccc6[nH]5)nn34)cc2)cc1 was tested, and the IC50 (SW-620 [3]) was 170 nM and the “fold change (FC)” value (SW-620 [4]) was 24.88.

Cc1cc(Nc2ccc(C(=O)/C=C/c3cccs3)cc2)n2nc(SCc3nc4ccccc4[nH]3)nc2n1 was tested, and the IC50 (SW-620 [3]) was 820 nM and the “fold change (FC)” value (SW-620 [4]) was 5.15.

COc1cc(OC)c(/C=C/C(=O)c2ccc(Nc3cc(C)nc4nc(SCc5nc6ccccc6[nH]5)nn34)cc2)c(OC)c1 was tested, and the “fold change (FC)” value (SW-620 [1]) was 16.27 and the IC50 (SW-620 [2]) was 260 nM.

With Cc1cc(Nc2ccc(C(=O)/C=C/c3ccc(OC(F)(F)F)cc3)cc2)n2nc(SCc3nc4ccccc4[nH]3)nc2n1 the IC50 (SW-620 [3]) was 220 nM and the “fold change (FC)” value (SW-620 [4]) was 19.5.

With Cc1cc(Nc2ccc(C(=O)/C=C/c3ccc4ccccc4c3)cc2)n2nc(SCc3cccc([N+](=O)[O-])c3)nc2n1 the “fold change (FC)” value (SW-620 [9]) was 5.35 and the IC50 (SW-620 [10]) was 790 nM.

With O=C(/C=C/c1ccc2ccccc2c1)c1ccc(Nc2cc(-c3ccccc3)nc3ncnn23)cc1 the IC50 (SW-620 [7]) was 790 nM and the “fold change (FC)” value (SW-620 [8]) was 5.35.

Cc1cc(Nc2ccc(C(=O)/C=C/c3ccc4ccccc4c3)cc2)n2nc(SCc3ccccc3Br)nc2n1 was tested, and the “fold change (FC)” value (SW-620 [9]) was 10.07 and the IC50 (SW-620 [10]) was 420 nM.

Cc1cc(Nc2ccc(C(=O)/C=C/c3ccccc3)cc2)n2nc(SCc3nc4ccccc4[nH]3)nc2n1 was tested, and the IC50 (SW-620 [3]) was 130 nM and the “fold change (FC)” value (SW-620 [4]) was 32.54.

With Cc1cc(Nc2ccc(C(=O)/C=C/c3ccc(Br)cc3)cc2)n2nc(SCc3nc4ccccc4[nH]3)nc2n1 the IC50 (SW-620 [3]) was 290 nM and the “fold change (FC)” value (SW-620 [4]) was 14.59.

Cc1cc(Nc2ccc(C(=O)/C=C/c3ccc4ccccc4c3)cc2)n2nc(SCc3cccc(C(F)(F)F)c3)nc2n1 was tested, and the “fold change (FC)” value (SW-620 [9]) was 2.04 and the IC50 (SW-620 [10]) was 2070 nM.

With Cc1cc(Nc2ccc(C(=O)/C=C/c3ccc(F)cc3)cc2)n2nc(SCc3nc4ccccc4[nH]3)nc2n1 the IC50 (SW-620 [3]) was 85 nM and the “fold change (FC)” value (SW-620 [4]) was 49.8.

With Cc1ccc(/C=C/C(=O)c2ccc(Nc3cc(C)nc4nc(SCc5nc6ccccc6[nH]5)nn34)cc2)cc1 the IC50 (SW-620 [3]) was 1520 nM and the “fold change (FC)” value (SW-620 [4]) was 2.78.

For Cc1cc(Nc2ccc(C(=O)/C=C/c3ccc4ccccc4c3)cc2)n2nc(SCc3ccccc3)nc2n1, the “fold change (FC)” value (SW-620 [9]) was 14.1 and the IC50 (SW-620 [10]) was 300 nM.

For O=C(/C=C/c1ccc2ccccc2c1)c1ccc(Nc2c3c(nc4ncnn24)CCC3)cc1, the “fold change (FC)” value (SW-620 [11]) was 4.03 and the IC50 (SW-620 [12]) was 1050 nM.

COc1ccc(CSc2nc3nc(C)cc(Nc4ccc(C(=O)/C=C/c5ccc6ccccc6c5)cc4)n3n2)cc1 was tested, and the “fold change (FC)” value (SW-620 [9]) was 16.92 and the IC50 (SW-620 [10]) was 250 nM.
